The text below walks through data of patent US20050197364A1, “Amide compounds as ion channel ligands and uses thereof” (priority 2003, published 2005).

One test has as its system VR1 receptor. The test is described as follows: High throughput calcium imaging assay (Fura2, Flex Station) of VR1 antagonists, pH 5.1 stimulus. It is filed as cell-based. The following applies: 1 uM compound; inhibition of calcium ion influx induced by capsaicin stimulation.
Description: Therefore the functional activity of compounds at the VR1 receptor may be determined by measuring changes in intracellular calcium levels in 293 cells expressing capsaicin-insensitive VR1 receptor variants. A dual wavelength ratiometric dye, Fura2, was used as an indicator of relative levels of calcium ions in a 96 well format using a bench top scanning fluorometer with integrated fluidics and temperature control (Flex Station, Molecular Devices).
293 cells were grown on PDL coated 96-well black-walled plates, in the presence of a DMEM medium containing 5% Penstrep, 5% Glutamax, 200 ug/mL Hygromycin, 5 μg/mL Blasticide and 10% heat inactivated FBS. Prior to assay, the cells were loaded with 5 μg/mL Fura2 in normal saline solution at 37° C. for 40 minutes. Cells were then washed with normal saline to remove the dye.
The assay consists of two stages; a pre-treatment phase followed by a treatment phase.
50 μl of a compound solution was added to the cells (Pre-treatment). Immediately following, 50 μl of the test compound in a saline solution at pH 5.1 was added. Fura2 was excited at 340 and 380 nM to indicate relative calcium concentration. Changes in wavelength measurements were made throughout the course of the experiment in 4 second intervals over a period of 3 minutes. Responses were measured as peak fluorescence ratio after test compound addition minus baseline fluorescence ratio prior to pre-treatment and were calculated using SoftMaxPro softwareData were expressed as percentage inhibition calculated using Excel as follows: [formula]
Consider `O=C(Nc1ccc2c(c1)OCCO2)c1ccc(-c2ncccc2Cl)cc1` [Compound 1], for which the “% Inhibition @ 1 uM” value was “+ + (compound exhibited 25-50% inhibition of calcium ion influx induced by capsaicin stimulation)”.
For the compound `COc1cccc(NC(=O)c2ccc(-c3ncccc3Cl)cc2)c1` [Compound 2], the “% Inhibition @ 1 uM” value is “+ (compound exhibited 0-25% inhibition of calcium ion influx induced by capsaicin stimulation)”.
For `O=C(Nc1ccccc1)c1ccc(-c2ncccc2Cl)cc1` [Compound 3], the “% Inhibition @ 1 uM” value is reported as “+ (compound exhibited 0-25% inhibition of calcium ion influx induced by capsaicin stimulation)”.
Take `O=C(Nc1ccc2[nH]ccc2c1)c1ccc(-c2ncccc2Cl)cc1` [Compound 4]: the “% Inhibition @ 1 uM” value is recorded as “+ + + + (compound exhibited 75% or greater inhibition of calcium ion influx induced by capsaicin stimulation)”.
Still for that read-out and setting: next, `COc1ccc(NC(=O)c2ccc(-c3ncccc3Cl)cc2)cc1` [Compound 5]: “+ + (compound exhibited 25-50% inhibition of calcium ion influx induced by capsaicin stimulation)”.
On the same count and under the same terms, next, `O=C(Nc1ccncc1)c1ccc(-c2ncccc2Cl)cc1` [Compound 7]: “+ + + + (compound exhibited 75% or greater inhibition of calcium ion influx induced by capsaicin stimulation)”.
Turning to `O=C(Nc1cccnc1)c1ccc(-c2ncccc2Cl)cc1` [Compound 8], the “% Inhibition @ 1 uM” value is “+ + + + (compound exhibited 75% or greater inhibition of calcium ion influx induced by capsaicin stimulation)”.
For `O=C(Nc1cc[nH]n1)c1ccc(-c2ncccc2Cl)cc1` [Compound 9], the “% Inhibition @ 1 uM” value is given as “+ (compound exhibited 0-25% inhibition of calcium ion influx induced by capsaicin stimulation)”.
On to `N#Cc1ccccc1NC(=O)c1ccc(-c2ncccc2Cl)cc1` [Compound 11], for which the “% Inhibition @ 1 uM” value is given as “+ (compound exhibited 0-25% inhibition of calcium ion influx induced by capsaicin stimulation)”.
With `O=C(Nc1cccc(Cl)c1)c1ccc(-c2ncccc2Cl)cc1` [Compound 12], the “% Inhibition @ 1 uM” value is “+ (compound exhibited 0-25% inhibition of calcium ion influx induced by capsaicin stimulation)”.
Consider `COc1ccccc1NC(=O)c1ccc(-c2ncccc2Cl)cc1` [Compound 13], for which the “% Inhibition @ 1 uM” value is “+ + + + (compound exhibited 75% or greater inhibition of calcium ion influx induced by capsaicin stimulation)”.
Regarding `O=C(Nc1ccccc1Cl)c1ccc(-c2ncccc2Cl)cc1` [Compound 15], the “% Inhibition @ 1 uM” value is on record as “+ (compound exhibited 0-25% inhibition of calcium ion influx induced by capsaicin stimulation)”.
`O=C(Nc1ccc(Cl)cc1Cl)c1ccc(-c2ncccc2Cl)cc1` [Compound 16]: the “% Inhibition @ 1 uM” value is given as “+ (compound exhibited 0-25% inhibition of calcium ion influx induced by capsaicin stimulation)”.
In the case of `COc1ccc(NC(=O)c2ccc(-c3ncccc3Cl)cc2)cc1Cl` [Compound 17], the “% Inhibition @ 1 uM” value was “+ (compound exhibited 0-25% inhibition of calcium ion influx induced by capsaicin stimulation)”.
The same measure, in the same setting: the value for `O=C(Nc1ccc(Cl)c(C(F)(F)F)c1)c1ccc(-c2ncccc2Cl)cc1` [Compound 20] was “+ + + (compound exhibited 50-75% inhibition of calcium ion influx induced by capsaicin stimulation)”; that for `O=C(Nc1cccc(Br)c1)c1ccc(-c2ncccc2Cl)cc1` [Compound 21] was “+ (compound exhibited 0-25% inhibition of calcium ion influx induced by capsaicin stimulation)”.
For the compound `N#Cc1cccc(NC(=O)c2ccc(-c3ncccc3Cl)cc2)c1` [Compound 22], the “% Inhibition @ 1 uM” value is “+ (compound exhibited 0-25% inhibition of calcium ion influx induced by capsaicin stimulation)”.
With `O=C(Nc1ccccc1CCO)c1ccc(-c2ncccc2Cl)cc1` [Compound 23], the “% Inhibition @ 1 uM” value is listed as “+ + + (compound exhibited 50-75% inhibition of calcium ion influx induced by capsaicin stimulation)”.
In the case of `CC(C)c1ccc(NC(=O)c2ccc(-c3ncccc3Cl)cc2)cc1` [Compound 25], the “% Inhibition @ 1 uM” value was “+ + + + (compound exhibited 75% or greater inhibition of calcium ion influx induced by capsaicin stimulation)”.
For the compound `CCCCc1ccc(NC(=O)c2ccc(-c3ncccc3Cl)cc2)cc1` [Compound 26], the “% Inhibition @ 1 uM” value is “+ + (compound exhibited 25-50% inhibition of calcium ion influx induced by capsaicin stimulation)”.
Turning to `O=C(Nc1ccc(C2CCCCC2)cc1)c1ccc(-c2ncccc2Cl)cc1` [Compound 27], the “% Inhibition @ 1 uM” value is “+ + + + (compound exhibited 75% or greater inhibition of calcium ion influx induced by capsaicin stimulation)”.
`COc1cc(NC(=O)c2ccc(-c3ncccc3Cl)cc2)cc(C(F)(F)F)c1` [Compound 28]: the “% Inhibition @ 1 uM” value was “+ + (compound exhibited 25-50% inhibition of calcium ion influx induced by capsaicin stimulation)”.
For `O=C(Nc1cccnc1Cl)c1ccc(-c2ncccc2Cl)cc1` [Compound 30], the “% Inhibition @ 1 uM” value is reported as “+ + (compound exhibited 25-50% inhibition of calcium ion influx induced by capsaicin stimulation)”.
As to `O=C(Nc1ccc(Cl)nc1)c1ccc(-c2ncccc2Cl)cc1` [Compound 31], the “% Inhibition @ 1 uM” value is on record as “+ (compound exhibited 0-25% inhibition of calcium ion influx induced by capsaicin stimulation)”.
As for `COc1ccc(NC(=O)c2ccc(-c3ncccc3Cl)cc2)cn1` [Compound 32], the “% Inhibition @ 1 uM” value was “+ (compound exhibited 0-25% inhibition of calcium ion influx induced by capsaicin stimulation)”.
As for `O=C(Nc1ccnc(Cl)c1)c1ccc(-c2ncccc2Cl)cc1` [Compound 33], the “% Inhibition @ 1 uM” value is recorded as “+ + + + (compound exhibited 75% or greater inhibition of calcium ion influx induced by capsaicin stimulation)”.
For the compound `O=C(Nc1ccc2c(c1)OCO2)c1ccc(-c2ncccc2Cl)cc1` [Compound 34], the “% Inhibition @ 1 uM” value was “+ (compound exhibited 0-25% inhibition of calcium ion influx induced by capsaicin stimulation)”.
For `Cc1cc(NC(=O)c2ccc(-c3ncccc3Cl)cc2)nc(C)n1` [Compound 35], the “% Inhibition @ 1 uM” value is reported as “+ (compound exhibited 0-25% inhibition of calcium ion influx induced by capsaicin stimulation)”.
With `O=C(Nc1ccc2c(c1)Cc1ccccc1-2)c1ccc(-c2ncccc2Cl)cc1` [Compound 36], the “% Inhibition @ 1 uM” value was “+ + (compound exhibited 25-50% inhibition of calcium ion influx induced by capsaicin stimulation)”.
For `Cc1cc(C)nc(NC(=O)c2ccc(-c3ncccc3Cl)cc2)c1` [Compound 37], the “% Inhibition @ 1 uM” value is given as “+ (compound exhibited 0-25% inhibition of calcium ion influx induced by capsaicin stimulation)”.
Turning to `O=C(Nc1nccs1)c1ccc(-c2ncccc2Cl)cc1` [Compound 38], the “% Inhibition @ 1 uM” value is on record as “+ (compound exhibited 0-25% inhibition of calcium ion influx induced by capsaicin stimulation)”.
Take `CC(C)(CO)NC(=O)c1ccc(-c2ncccc2Cl)cc1` [Compound 41]: the “% Inhibition @ 1 uM” value is on record as “+ (compound exhibited 0-25% inhibition of calcium ion influx induced by capsaicin stimulation)”.
Still for that read-out and setting: the value for `CN(C)c1cccc(NC(=O)c2ccc(-c3ncccc3Cl)cc2)c1` [Compound 43] was “+ + + + (compound exhibited 75% or greater inhibition of calcium ion influx induced by capsaicin stimulation)”.
For `CCN(CC)c1ccc(NC(=O)c2ccc(-c3ncccc3Cl)cc2)cc1` [Compound 44], the “% Inhibition @ 1 uM” value is “+ + + + (compound exhibited 75% or greater inhibition of calcium ion influx induced by capsaicin stimulation)”.
The same measure, in the same setting: next, `O=C(Nc1ccc(N2CCNCC2)cc1)c1ccc(-c2ncccc2Cl)cc1` [Compound 45]: “+ (compound exhibited 0-25% inhibition of calcium ion influx induced by capsaicin stimulation)”.
`Cc1cccnc1NC(=O)c1ccc(-c2ncccc2Cl)cc1` [Compound 48]: the “% Inhibition @ 1 uM” value is “+ + (compound exhibited 25-50% inhibition of calcium ion influx induced by capsaicin stimulation)”.
With `O=C(Nc1ccc(Br)cn1)c1ccc(-c2ncccc2Cl)cc1` [Compound 49], the “% Inhibition @ 1 uM” value is given as “+ + (compound exhibited 25-50% inhibition of calcium ion influx induced by capsaicin stimulation)”.
In the case of `O=C(Nc1ccc(C(F)(F)F)cn1)c1ccc(-c2ncccc2Cl)cc1` [Compound 50], the “% Inhibition @ 1 uM” value is listed as “+ + (compound exhibited 25-50% inhibition of calcium ion influx induced by capsaicin stimulation)”.
The same measure, in the same setting: the value for `CCC(C)(C)NC(=O)c1ccc(-c2ncccc2Cl)cc1` [Compound 53] was “+ (compound exhibited 0-25% inhibition of calcium ion influx induced by capsaicin stimulation)”; that for `CCC1c2ccccc2-c2cc(NC(=O)c3ccc(-c4ncccc4Cl)cc3)ccc21` (stereo not shown) [Compound 55] was “+ + (compound exhibited 25-50% inhibition of calcium ion influx induced by capsaicin stimulation)”; that for `O=C(Nc1ccc([N+](=O)[O-])cc1)c1ccc(-c2ncccc2Cl)cc1` [Compound 56] was “+ + + + (compound exhibited 75% or greater inhibition of calcium ion influx induced by capsaicin stimulation)”.
For `O=C(Nc1ccncc1)c1ccc(-c2ncccc2Cl)cc1F` [Compound 62], the “% Inhibition @ 1 uM” value is “+ (compound exhibited 0-25% inhibition of calcium ion influx induced by capsaicin stimulation)”.
The same measure, in the same setting: next, `O=C(Nc1cccnc1)c1ccc(-c2ncccc2Cl)cc1F` [Compound 63]: “+ (compound exhibited 0-25% inhibition of calcium ion influx induced by capsaicin stimulation)”; `CC(C)(NC(=O)c1ccc(-c2ncccc2Cl)cc1F)c1ccccc1` [Compound 66]: “+ (compound exhibited 0-25% inhibition of calcium ion influx induced by capsaicin stimulation)”; `O=C(Nc1ccccc1O)c1ccc(-c2ncccc2Cl)cc1F` [Compound 67]: “+ (compound exhibited 0-25% inhibition of calcium ion influx induced by capsaicin stimulation)”.
Regarding `CC(C)c1cccc(NC(=O)c2ccc(-c3ncccc3Cl)cc2F)c1` [Compound 69], the “% Inhibition @ 1 uM” value is listed as “+ (compound exhibited 0-25% inhibition of calcium ion influx induced by capsaicin stimulation)”.
In the case of `O=C(Nc1cccc(Cl)c1)c1ccc(-c2ncccc2Cl)cc1F` [Compound 71], the “% Inhibition @ 1 uM” value is listed as “+ (compound exhibited 0-25% inhibition of calcium ion influx induced by capsaicin stimulation)”.

The test is the same for the next values; noted with them: 1 uM compound; inhibition of calcium ion influx induced by capsaicin stimulation; 1 µM.
Take `O=C(Nc1ccc2ccccc2c1)c1ccc(-c2ncccc2Cl)cc1` [Compound 54]: the “% Inhibition @ 1 uM” value is on record as “+ (compound exhibited 0-25% inhibition of calcium ion influx induced by capsaicin stimulation)”.
As to `O=C(Nc1ccc2ccccc2c1)c1ccc(-c2ncccc2Cl)cc1` [Compound 57], the “% Inhibition @ 1 uM” value is “+ + + + (compound exhibited 75% or greater inhibition of calcium ion influx induced by capsaicin stimulation)”.
